“And” between values parts separate entries of the source, which are not always exact repeats. Equal values may be shown once. Marks after values point to notes of the source that are not given here.
Experiments:
Format in all cases: cell-based
[1] = tested on: bovine embryos co-cultured with granulosa cells; assay: Example 4: Hb (1 or 10 μg/ml) added to mBECM-C, embryos co-cultured with granulosa cells
Method: (§1) mBECM containing 10 μM β-mercaptoethanol was used to culture embryos, as described in J. Lim et al., “Roles of growth factors in the development of bovine embryos fertilized in vitro and cultured singly in a defined medium,” Reprod. Fertil. Dev., 8, 1199-1205 (1996). To culture individual 8-cell embryos we used mBECM supplemented with 1 ng/ml platelet derived growth factor type AB (PDGF; Upstate Biotechnology Inc., Lake Placid, N.Y.), 1 ng/ml transforming growth factor-β (TGF; R & D System, Minneapolis, Minn.), 50 ng/ml arachidonic acid (AA; Cayman Chemical Co., Ann Arbor, Mich.), 100 μM glutathione (GSH; Sigma Co.) and 1 mg/ml polyvinyl alcohol (PVA) (mBECM-S). mBECM to which 10% (v/v) FBS was added (mBECM-C) was used for co-culturing inseminated zygotes with CGs and for producing 8-cell embryos. Osmolarity of the medium was maintained within the range of 265-290 mOsm.
(§2) The bovine cumulus-oocyte complexes (COCs) used were collected in Madison, Wis. (BOMED, Inc.), and were shipped in 2-ml of maturation medium in a battery powered incubator via overnight express mail service. Oocytes matured during transit and arrived within 24 h after exposure to maturation medium, pre-equilibrated at 39° C. in 5% CO2 in air. At 22-24 h after exposure to the medium, the COCs were inseminated in vitro as described in J. Lim et al., “Intracytoplasmic glutathione concentration and the role of β-mercaptoethanol in preimplantation development of bovine embryos,” Theriogenology, 46, 429-439 (1996). At 18 h post-insemination, COCs were cultured in groups (30-35 embryos) in a 4-well multidish (Nunc, Roskilde, Denmark) containing 0.8-ml of mBECM-C. Embryos were dislodged from CGs at 36-48 h post-insemination.
(§3) In Example 1, embryos (83-85 per group) collected 18 h post-insemination were cultured in mBECM-C, to which 0, 0.008, or 0.04 mM SNP was added at 18 or 60 h post-insemination. In Example 2, 8-cell embryos (80 per group) were produced in a co-culture system containing CGs and mBECM-C, and then beginning at 60 h post-insemination were cultured singly in a defined culture medium (mBECM-S), to which 0, 0.0016, 0.008, or 0.04 mM of SNP (S-0501, Sigma Co.) was added. In Example 3 embryos, either uncleaved (n=99) or developed to the 2-cell stage (90), were collected 48 h post-insemination; and cleaved embryos, either developed to the morula stage (69) or degenerate (63) were collected 144 h post-insemination. NO metabolites were then measured in the embryos. In Example 4, three groups of 95 zygotes each were co-cultured with CGs in mBECM-C, to which 0, 1, or 10 μg/ml Hb (bovine, mainly methemoglobin, H-2500, Sigma Co.) was added. […] Inseminated oocytes (104 per group) were co-cultured with CGs in MBECM-C up to 192 h post-insemination; and Hb (1 μg/ml) was added to the medium at 18, 60, or 144 h post-insemination. In Example 6, inseminated oocytes (93 per group) were cultured in the presence or absence of CGs in mBECM-C to which either 0 or 1 μg/ml Hb was added. In Example 7, 8-cell embryos (100 per group), obtained after culture in mBECM-C supplemented with Hb (1 μg/ml), were cultured singly in mBECM-S, with or without Hb.
(§4) Oocytes or 8-cell embryos were randomly and equally allocated to each treatment group. In Examples 1, 2, and 4-7, oocytes or embryos that had developed to the 2-cell, 8-cell, >8-cell, 16-cell morula, and blastocyst stages were individually scored ‘1’ (developed) at 48, 60, 96, 120, 144 and 192 h post-insemination, respectively. […] Sums of the scores in each stage of development were evaluated by analysis of variance (ANOVA) using the general linear model (PROC-GLM) in the SAS program software. In Example 3, concentrations of NO metabolites in embryos were subjected to ANOVA. […] Differences were regarded as statistically significant where P values were less than 0.05.

[2] = tested on: bovine embryos cultured in groups; assay: Example 6: Hb (1 μg/ml) in mBECM-C in presence or absence of cumulus-granulosa cells
Method: as §1, §2, §3, §4

[3] = tested on: 8-cell bovine embryos cultured singly; assay: Example 7: Hb (1 μg/ml) in mBECM-S, 8-cell embryos derived from Hb-containing co-culture, cultured singly
Method: as §1, §2
as §3, with “In Example 7, 8-cell embryos (100 per group), obtained after culture in mBECM-C supplemented with Hb (1 μg/ml), were cultured singly in mBECM-S, with or without Hb.” left out
Oocytes or 8-cell embryos were randomly and equally allocated to each treatment group. In Examples 1, 2, and 4-7, oocytes or embryos that had developed to the 2-cell, 8-cell, >8-cell, 16-cell morula, and blastocyst stages were individually scored ‘1’ (developed) at 48, 60, 96, 120, 144 and 192 h post-insemination, respectively. […] Sums of the scores in each stage of development were evaluated by analysis of variance (ANOVA) using the general linear model (PROC-GLM) in the SAS program software. […]

## hemoglobin [Hb]
[1]; Hb 1 μg/ml in mBECM-C
  Percent of Embryos Developed to 2-cell: 81%
  Percent of Embryos Developed to 16-cell: 52%
  Percent of Embryos Developed to >8-cell: 60%
  Percent of Embryos Developed to Blastocyst: 34% and 34^b %
  Percent of Embryos Developed to Morula: 46%
[1]; Hb 10 μg/ml in mBECM-C
  Percent of Embryos Developed to 2-cell: 78%
  Percent of Embryos Developed to 16-cell: 43%
  Percent of Embryos Developed to >8-cell: 53%
  Percent of Embryos Developed to Blastocyst: 27% and 27^ab %
  Percent of Embryos Developed to Morula: 41%
[2]; Hb 1 μg/ml + CG
  Percent of Embryos Developed to 2-cell: 77%
  Percent of Embryos Developed to 8-cell: 55%
  Percent of Embryos Developed to 16-cell: 51% and 51^b %
  Percent of Embryos Developed to Blastocyst: 33% and 33^b %
  Percent of Embryos Developed to Morula: 40% and 40^b %
[2]; Hb 1 μg/ml only, absence of CG
  Percent of Embryos Developed to 2-cell: 73%
  Percent of Embryos Developed to 8-cell: 52%
  Percent of Embryos Developed to 16-cell: 34^a %
  Percent of Embryos Developed to Blastocyst: 19^a %
  Percent of Embryos Developed to Morula: 27^ab %
[2]; Hb 1 μg/ml, cultured in the absence of CG
  promotion of pre-hatching development of embryos: not seen to promote
[3]; Hb 1 μg/ml present in mBECM-S, 100 8-cell embryos, examined 96 h
  Number of embryos developed to >8-cell: 68
[3]; Hb 1 μg/ml present in mBECM-S, 100 8-cell embryos, examined 120 h
  Number of embryos developed to 16-cell: 44
[3]; Hb 1 μg/ml present in mBECM-S, 100 8-cell embryos, examined 144 h
  Number of embryos developed to Morula: 26
[3]; Hb 1 μg/ml present in mBECM-S, 100 8-cell embryos, examined 192 h
  Number of embryos developed to Blastocyst: 8
[3]; Hb added to mBECM-S, P>0.09
  effect on proportions of 8-cell embryos developing to each embryonic stage: no significant effect
